Our source for the IC50 and duration of effect values is patent US6215002A, “Pyrrolopyrrolone derivatives as inhibitors of neutrophil elastase” (priority 1996, dated 2001).

For test [1], the target named is T1, human neutrophil elastase (Homo sapiens, UniProt P08246).
T1 sequence (P08246 30-267): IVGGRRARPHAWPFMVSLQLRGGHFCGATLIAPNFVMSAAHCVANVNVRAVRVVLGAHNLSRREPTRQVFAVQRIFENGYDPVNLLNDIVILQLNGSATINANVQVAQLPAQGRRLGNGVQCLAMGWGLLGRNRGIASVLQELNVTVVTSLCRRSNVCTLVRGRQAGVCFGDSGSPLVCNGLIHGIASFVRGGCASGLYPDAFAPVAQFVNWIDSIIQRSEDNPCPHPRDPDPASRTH
The test is described as follows: In vitro assay of human neutrophil elastase (HNE). Type of test: biochemical. The conditions noted are these: 118 nM purified human neutrophil elastase, pH 8.6, 15 min incubation at 30° C., MeO-succinyl-alanyl-alanyl-prolyl-valyl-p-nitroanilide substrate; read-out: HNE IC50. In outline: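 Residual activity was taken as the 10 min rate of absorbance rise at 405 nm after adding 0.6 mM MeO-succinyl-AAPV-p-nitroanilide. Curve fitting of activity against concentration gave IC50.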

Test [2] relates to Intracellular elastase. Put plainly: Oral in vivo model using IL-8 induced lung infiltrates for the assessment of intracellular elastase inhibition (hamster test). The conditions noted are these: effective dose of less than 40 mg/kg, IL-8 intratracheal. In outline: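 Fasted adult hamsters (n=4) given compound orally in water, with intratracheal 1 ug recombinant human IL-8; sacrificed 6 h later. Neutrophils from lung lavage and femoral bone marrow sonicated, granules disrupted, and elastase measured, with myeloperoxidase used to normalise for neutrophil recovery.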

Structures can show the parent of a compound that is named as a salt.

For orientation: IC50 means the concentration at which inhibition is half-maximal.

In the case of `CC(C)[C@H]1C(=O)N(S(C)(=O)=O)[C@H]2CCN(C(=O)c3ccc(CN(C)C)o3)[C@H]12.Cl` (relative stereo) [Example 251, rel-(3R,3aR,6aS)-4-(5-Dimethylaminomethyl-furan-2-carbonyl)-3-isopropyl-1-methanesulfonyl-hexahydro-pyrrolo[3,2-b]pyrrol-2-one hydrochloride], the IC50 in test [1] is 43 nM. Besides, the duration of effect entry in test [2] is recorded as “at least 6 hours”.
The matching figures for `CC(C)[C@H]1C(=O)N(S(C)(=O)=O)[C@H]2CCN(C(=O)c3ccc(CNC4CC4)o3)[C@H]12` (relative stereo) [Example 252, rel-(3R,3aR,6aS)-4-(5-Cyclolpropylaminomethyl-furan-2-carbonyl)-3-isopropyl-1-methanesulfonyl-hexahydro-pyrrolo[3,2-b]pyrrol-2-one hydrochloride]: 14 nM and “at least 6 hours”.
The matching figures for `CC(C)[C@H]1C(=O)N(S(C)(=O)=O)[C@H]2CCN(C(=O)c3cccc(CN(C)C)c3)[C@H]12` (relative stereo) [Example 253, rel-(3R3aR,6aS)-4-(3-Dimethylaminomethyl-benzoyl)-3-isopropyl-1-methanesulfonyl-hexahydro-pyrrolo[3,2-b]pyrrol-2-one hydrochloride]: 76 nM and “at least 6 hours”.
In the same order, the values of `CCC[C@H]1C(=O)N(S(C)(=O)=O)[C@H]2CCN(C(=O)/C=C/CN3CCN(C)CC3)[C@H]12.Cl.Cl` (relative stereo) [Example 254, rel-(3R,3aR,6aS)-1-Methanesulfonyl-4-[4-(4-methyl-piperazin-1-yl)-but-2E-enoyl]-3-propyl-hexahydro-pyrrolo[3,2-b]pyrrol-2-one dihydrochloride] are 97 nM and “at least 6 hours”.
In the case of `CCC[C@@H]1C(=O)N(S(C)(=O)=O)[C@@H]2CCN(C(=O)CCCCCN3CCCCCC3)[C@@H]12` [Example 117, hydrochloride], the IC50 in test [1] turned out to be 27 nM. Further, the duration of effect entry in test [2] is reported as “at least 6 hours”.
With `CCC[C@@H]1C(=O)N(S(C)(=O)=O)[C@@H]2CCN(C(=O)CCN3CCCCC3)[C@@H]12.Cl` [Example 118, (3S,3aS,6aR)-1-Methanesulfonyl-4-(3-piperidin-1-yl-propionyl)-3-propyl-hexahydro-pyrrolo[3,2-b]pyrrol-2-one hydrochloride], the IC50 in test [1] amounted to 73 nM. In test [2], the duration of effect entry was “at least 6 hours”.
